According to paper PMC9110316 (Computational and Structural Biotechnology Journal, 2022):
Where two headings read alike, the source gives them in different places. Where a SMILES comes first, the peptide text is derived from it. [ ]: non-standard residue; d: D form. The star is where a group is joined. Nle = CCCC[CH](N)C(=O)O; Cbz = O=C(OCc1ccccc1)*

Legend:
[1] = tested on: SARS-CoV-2 B.1.351 (Beta) variant pseudovirus; test: organism not typed; type: cell-based; details: Huh-7, read-out: EC50, inhibition of SARS-CoV-2 B.1.351 (Beta) variant pseudovirus infection
[2] = tested on: SARS-CoV-2 B.1.351 (Beta) variant pseudovirus; test: organism not typed; type: cell-based; details: A549, read-out: EC50, inhibition of SARS-CoV-2 B.1.351 (Beta) variant pseudovirus infection

| Structure (SMILES) | EC50 [1] [µM] | EC50 [2] [µM] |
| --- | --- | --- |
| CCCCC(C=O)NC(=O)C(CC(C)C)NC(=O)C(CC(C)C)NC(C)=O (stereo not drawn) [Mg-101] (Ac-Leu-Leu-[Nle]-aldehyde; configuration not given here) | 0.86 | 1.89 |
| CC(C)C[C@@H](C=O)NC(=O)[C@H](CC(C)C)NC(=O)[C@H](CC(C)C)NC(=O)OCc1ccccc1 [Mg-132] (Cbz-Leu-Leu-Leu-aldehyde) | 0.901 | 0.908 |
| CC(NC(=O)C(Cc1ccccc1)NC(=O)OCc1ccccc1)C(=O)CF (stereo not shown) [Z-FA-FMK] | 10 | 5.31 |
| CCCC[C@@H](C=O)NC(=O)[C@H](CC(C)C)NC(=O)OCc1ccccc1 [calpeptin] | 23.9 | 36.4 |
| CC(=O)N[C@@H](CC(C)C)C(=O)N[C@@H](CC(C)C)C(=O)N[C@H](C=O)CCCNC(=N)N [leupeptin hemisulfate] | 17.1 | 7.71 |
